Assay results reported in patent US7169568B2, “Method for screening molecules that exert a neurotrophic effect through activation of neurotrophin receptors” (New York University, priority 2000, dated 2007).
“Also recorded” adds a separate entry of the source.

Experiments:
TrkB receptors = experiment: Trk receptor phosphorylation in primary E17 hippocampal neurons (immunoprecipitation, anti-phosphotyrosine Western blot); format: cell-based, rat; conditions: two hours
Experimental: FIGS. 4A and 4B show Western blots on adenosine activation of Trk receptors in hippocampal neurons. Primary cultures of E17 hippocampal neurons were prepared as described in the Materials and Methods of Example 1 and treated with (FIG. 4A) CGS 21680 (10 nM) or BDNF (1 ng/ml) for various times and (FIG. 4B) either adenosine (10 μM), CGS 21680 (10 nM), CPA (10 nM) or BDNF (10 ng/ml) for 2 hr. Activation of TrkA receptors was assessed by immunoprecipitation and Western blotting with anti-phosphotyrosine antibody.
(§1) Immunoprotection and Immunoblotting. PC12 cells or PC12-615 cells (Hempstead et al, 1992), were maintained in Dulbecco's Modified Eagle's Medium (DMEM) containing 10% fetal bovine serum (FBS) supplemented with 100 units/ml penicillin, 100 μg/ml streptomycin, and 2 mM glutamine plus 200 μg/ml G418. Cells were placed in low serum medium (1% FBS, 0.5% horse serum) overnight prior to experiments. Cell lysates from PC12, 615 cells, or hippocampal cells were incubated in lysis buffer (1% NP40) for 4 hours to overnight at 4° C. with anti-pan-Trk polyclonal antibody, followed by incubation with protein A-Sepharose beads. Equivalent amounts of protein were analyzed for each condition. The beads' were washed five times with lysis buffer and the immune complexes were boiled in SDS-sample buffer and loaded on sodium dodecyl sulfate-polyacrylamide electrophoresis (SDS-PAGE) gels for immunoblot analysis. The immunoreactive protein bands were detected by ECL reagents based upon enhanced chemiluminescence procedure (Amersham Pharmacia).
Hippocampal Cell Cultures. Dissociated primary cultures of hippocampal neurons from embryonic day 17 (E17) rats were prepared from timed-pregnant Sprague-Dawley rats as described previously (Aibel et al, 1998). Fetuses were removed under sterile conditions and kept in PBS on ice for microscopic dissection of the hippocampus. The meninges were removed and the tissue was placed in Neurobasal media (Gibco BRL). […] Cells were counted and then plated on culture wells coated with 0.01 mg/ml poly-D-lysine overnight. […]

TrkA = TrkA (Homo sapiens, UniProt P04629); experiment: 125I-NGF equilibrium binding, PC12 cells stably overexpressing TrkA; set-up: expressed in transfected cells; conditions: for Displacement of 125I-NGF binding: PC12 cells overexpressing TrkA, adenosine 1 mM, CGS 21680 1 μM; for Specific Binding of 125I-NGF: 30 minutes at 25° C., control 14316 +/− 350
Experimental: ^125I-NGF Binding Analysis. For equilibrium binding studies, ^125I-NGF was prepared as described previously (Hempstead et al, 1989). PC12 cells stably overexpressing TrkA (2×10^5 cells) and HEK 293 cells expressing TrkA (2×10^5) were incubated with ^125I-NGF in the absence and presence of adenosine compounds for 30 minutes at 25° C. The cells were then washed twice with PBS, and ^125I-NGF stripped with an acid solution (0.2 M acetic acid, 0.5 M NaCl). Nonspecific binding was assessed by adding unlabeled NGF at a final concentration of 1000 ng/ml and represented less than 20% of total binding. Specific binding was defined as total binding minus nonspecific binding. All conditions were carried out in triplicate and SEM calculated.

TrkA receptors = experiment: TrkA receptor tyrosine phosphorylation in PC12 (615) cells (anti-pan-Trk immunoprecipitation, PY99 anti-phosphotyrosine immunoblot); format: cell-based; conditions: PC12 (615) cells
Experimental: Stably transfected PC12 cells expressing high levels of TrkA (615) were treated with the indicated compounds for 2 hours. The cells were subsequently harvested in lysis buffer as described in the Materials and Methods of Example 1. Lysates were immunoprecipitated with anti-pan Trk rabbit antiserum. Immunocomplexes were analyzed by immunoblotting with anti-phosphotyrosine antibody (PY99).
In FIG. 2A, different concentrations of adenosine were administered to PC12615 cells for 2 hours or NGF (1 ng/ ml) for 10 min. Cells were also treated with CGS21680 at the indicated dose for 2 hours. In FIG. 2B, PC12 cells (615) were treated with adenosine (10 μM) for various times or with 5 ng/ml NGF for 10 min. Phosphorylated TrkA receptors were detected by immunoblot analysis using PY99 anti-phosphotyrosine antibodies. The amount of Trk receptors in each condition was verified by immunoblotting.
In FIG. 3A, PC12 cells (615) were treated with the A2A agonist CGS 21680 (10 nM) and an A1 agonist CPA (10 nM) for 2 hr. ZM 241385 (10 nM), an A2A antagonist, was incubated with the cells for 15 min prior to treatment with adenosine (10 μM) for 2 hours. In FIG. 3B, PC12 cells (615) were incubated with the indicated concentrations of PP1, a Src family kinase inhibitor (Hanke et al, 1996), for 30 min, and then treated with adenosine (10 μM) for 2 hours. Activation of TrkA was assessed by immunoprecipitation and immunoblot analysis using PY99 anti-phosphotyrosine antibody.
In FIG. 7A, different concentrations of PACAP27 were administered to PC12 (615) cells for 2 hours or NGF (5 ng/ml) for 10 min. […] Phosphorylated TrkA receptors were detected by immunoblot analysis using PY99 anti-phosphotyrosine antibodies. The level of Trk receptors for each condition was verified by immunoblotting with anti-Trk antibodies.
as §1
Immunoprecipitated and Immunoblotting. PC12 (615) cells were maintained in DMEM containing 10% FBS supplemented with 100 units/ml penicillin, 100 μg/ml streptomycin, and 2 mM glutamine plus 200 μg/ml G418. Cells were placed in serum free medium overnight before experiments. Cell lysates from PC12(615) cells, or basal forebrain cells were incubated in lysis buffer (1% Nonidet P-40) for 4 hrs to overnight at 4° C. with anti-pan-Trk polyclonal antibody followed by incubation with protein A-Sepharose beads. Equivalent amounts of protein were analyzed for each condition.

TrkA, sequence (P04629 33-796): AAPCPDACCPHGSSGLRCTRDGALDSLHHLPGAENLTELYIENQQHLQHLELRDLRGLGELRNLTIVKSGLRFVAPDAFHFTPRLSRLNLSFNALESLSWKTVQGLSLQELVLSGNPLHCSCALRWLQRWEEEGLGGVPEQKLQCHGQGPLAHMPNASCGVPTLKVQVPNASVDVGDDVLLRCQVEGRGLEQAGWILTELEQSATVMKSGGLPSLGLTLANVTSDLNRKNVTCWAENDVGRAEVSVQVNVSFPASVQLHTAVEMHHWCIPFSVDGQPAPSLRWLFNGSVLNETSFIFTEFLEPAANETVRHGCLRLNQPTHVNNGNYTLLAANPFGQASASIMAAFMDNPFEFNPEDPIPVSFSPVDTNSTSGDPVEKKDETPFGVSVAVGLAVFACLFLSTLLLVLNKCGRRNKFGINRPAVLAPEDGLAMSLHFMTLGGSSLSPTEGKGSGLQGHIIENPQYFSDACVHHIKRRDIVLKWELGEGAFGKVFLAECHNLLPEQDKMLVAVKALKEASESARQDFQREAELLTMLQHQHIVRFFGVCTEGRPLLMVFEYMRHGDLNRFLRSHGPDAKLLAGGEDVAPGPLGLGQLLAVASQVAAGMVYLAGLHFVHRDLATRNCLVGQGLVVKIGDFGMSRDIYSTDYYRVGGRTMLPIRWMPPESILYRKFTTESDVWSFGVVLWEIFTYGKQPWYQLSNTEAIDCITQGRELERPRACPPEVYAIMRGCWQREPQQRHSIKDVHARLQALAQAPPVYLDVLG

| SMILES | Phosphorylation of TrkB receptors (TrkB receptors; 10 μM) | Displacement of 125I-NGF binding (TrkA) | Specific Binding of 125I-NGF (TrkA; Pc12, 1 mM) | Concentration range of the effect upon TrkA receptor activity (TrkA receptors; 2 hours) | Time required for increase in TrkA activation (TrkA receptors; adenosine 10 μM) | Activation of TrkA receptors (tyrosine phosphorylation) (TrkA receptors; ligand for 2 hours, adenosine 10 μM) | Phosphorylation of TrkB receptors (TrkB receptors; 10 nM) | Specific Binding of 125I-NGF (TrkA; Pc12, 1 μM) | Activation of TrkA receptor activity (TrkA receptors; 1 nM, 2 hours) |
| --- | --- | --- | --- | --- | --- | --- | --- | --- | --- |
| Nc1ncnc2c1ncn2[C@@H]1O[C@H](CO)[C@@H](O)[C@H]1O [adenosine] | gave rise to phosphorylated TrkB receptors | no displacement | 14403 +/− 888 | low nanomolar range; also recorded: low concentration range | at least 90 minutes | Activated TrkA receptors were observed | – | – | – |
| CCNC(=O)[C@H]1O[C@@H](n2cnc3c(N)nc(NCCc4ccc(CCC(=O)O)cc4)nc32)[C@H](O)[C@@H]1O [CGS 21680, 2-[(4-(2-carboxyethyl)phenylethyl)]aminoadenosine-5′-N-ethylcarboxamide] | – | no displacement | – | – | – | – | gave rise to phosphorylated TrkB receptors | 14237 +/− 1055 | verified |
